# Patent US10149833B2, “Small molecule, indirubin-3-oxime, for prevention and treatment of bone disease” (Industry-Academic Cooperation Foundation, Yonsei University, priority 2013, dated 2018)
# Entries after “also recorded” stand apart in the source; their conditions may differ.
# Columns and labels:
# ex vivo tibia = ex vivo tibia culture, tibia length and safranin staining; type: cell-based, C57BL/6 mice; conditions: 1 μM and 5 μM
# Procedure: The tibiae were separated from 15.5-embryonic-day-old C57BL/6 mice, and were incubated in a 24-well tissue culture dish for 7 days. The medium used was prepared by adding 10% FBS, 1 mM beta-polyglycerol disodium phosphate, 50 ng/ml ascorbic acid, 0.3 mg/ml L-glutamine, 0.2% BSA, 100 U/ml penicillin, and 100 μg/ml streptomycin to a minimal essential medium (α-MEM, Gibco). Then, the tibiae were separated from the mice. After being treated in the medium for 24 hours, the tibia was treated with a drug. The medium and the drug were changed every two days. The tibia length was measured before and after treatment with the drug. The tibial tissue, on which drug treatment was completed, was rinsed with PBS and then fixed using 4% formaldehyde. The tissue-cultured embryo tibiae and the animal-tested tibiae were dewaxed in xylene, and were rehydrated in a stepwise-diluted ethanol solution. The tibial tissue, which was separated from 15.5-embryonic-day-old ICR mice and then tissue-cultured, was stained using the safranin staining procedure. Staining was carried out for 25 min in a 0.02% fast green solution, and after brief dipping in acetic acid, was again carried out for 7 min in a 0.1% safranin solution. Meanwhile, the tibial tissue that was animal-tested and decalcified in EDTA was stained via the hematoxylin-eosin staining procedure. […]
# β-catenin [1] = assay: Western blot in RCS cells, β-catenin; type: cell-based, Rat; conditions: 24 hours treatment (FIG. 2A)
# Procedure: (§1) Rat chondrosarcoma (RCS) cells were cultured in a Dulbecco's modified Eagle's medium (DMEM; Gibco, Grand Island, N.Y.), supplemented with 10% fetal bovine serum (FBS) and penicillin/streptomycin.
# (§2) For Western blot analysis, cells were treated with indirubin-3′-oxime for 24 hours, cultured and reached to 70% confluency and then were harvested. After the harvested samples underwent cytolysis, the proteins were quantified, which was followed by electrophoresis using 10% or 12% SDA-PAGE gel. Afterwards, immunoblot was conducted using antibodies.
# (§3) Indirubin-3′-oxime, a GSKβ inhibitor, is already known to increase the stability of β-catenin.
# GSKβ = assay: Western blot in RCS cells, inactive GSKβ; type: cell-based, Rat; conditions: 24 hours treatment (FIG. 2A)
# Procedure: as §1, §2, §3
# β-catenin [2] = assay: ICC analysis (immunocytochemistry), β-catenin translocation into the nucleus; type: cell-based, Rat; conditions: RCS cells, 24 hours treatment (FIG. 2B)
# Procedure: as §1
# 2.5×10^4 cells were adhered to a cover glass placed in a 12-well plate. Once securely attached, cells were treated with indirubin-3′-oxime for 24 hours, and then were rinsed with a phosphoric acid buffer solution. After adding 4% paraformaldehyde, cells were fixed at room temperature for 20 min. Then, proteins expressed in the cells were observed through cell membrane permeation, blocking, and immunofluorescent staining processes.
# as §3
# β-catenin [3] = assay: IHC analysis on ex vivo tibia tissues; type: cell-based, mice; conditions: ex vivo tibiae treated with the drug (FIG. 2C)
# Procedure: The tibiae were separated from 15.5-embryonic-day-old C57BL/6 mice, and were incubated in a 24-well tissue culture dish for 7 days. The medium used was prepared by adding 10% FBS, 1 mM beta-polyglycerol disodium phosphate, 50 ng/ml ascorbic acid, 0.3 mg/ml L-glutamine, 0.2% BSA, 100 U/ml penicillin, and 100 μg/ml streptomycin to a minimal essential medium (α-MEM, Gibco). Then, the tibiae were separated from the mice. After being treated in the medium for 24 hours, the tibia was treated with a drug. The medium and the drug were changed every two days. The tibia length was measured before and after treatment with the drug. The tibial tissue, on which drug treatment was completed, was rinsed with PBS and then fixed using 4% formaldehyde.
# (§4) The tibiae that underwent a dewaxing process were dehydrated. After paraffin blocks were formed, the tissues were sectioned at 4-μm thickness. The sectioned tissues were rehydrated, and then stained using immunofluorescence.
# as §3
# growth plate = growth plate activity in 7-week-old mice treated for 2 weeks; type: in vivo, C57BL/6 mice; conditions: treated 2 weeks
# Procedure: (§5) Two and six-week-old C57BL/6 mice, purchased from KOATECH (Gyeonggi-do, South Korea), were cared for in accordance with the guidelines established by the Institutional Animal Care and Use Committee at Yonsei University. The mice were divided into a control group and an experimental group, and were adapted to the environment for 1 week. Afterwards, they were treated every day for 2 weeks with a solution containing 20% dimethyl […] and 30% ethanol, or with indirubin-3′-oxime (0.05 mg/kg, 0.1 mg/kg, and 0.5 mg/kg), via intraperitoneal injection. Two weeks later, the tibiae were separated from mice, and then the muscles were separated and removed, after which the bones were fixed using 4% formaldehyde. The bones were treated for 2 weeks with a 10% EDTA solution for the decalcification process. The EDTA solution was changed every two days.
# (§6) The tissue-cultured embryo tibiae and the animal-tested tibiae were dewaxed in xylene, and were rehydrated in a stepwise-diluted ethanol solution. The tibial tissue, which was separated from 15.5-embryonic-day-old ICR mice and then tissue-cultured, was stained using the safranin staining procedure. Staining was carried out for 25 min in a 0.02% fast green solution, and after brief dipping in acetic acid, was again carried out for 7 min in a 0.1% safranin solution. Meanwhile, the tibial tissue that was animal-tested and decalcified in EDTA was stained via the hematoxylin-eosin staining procedure. The tissue was stained in a hematoxylin solution for 10 min and then rinsed in running water for 10 min. After being briefly dipped in a solution comprising 0.1% hydrochloric acid and 70% ethanol, the tissue was stained for 30 sec in an eosin solution. The stained tibial tissues again underwent a dehydration process in the stepwise-diluted ethanol solution and were dewaxed in xylene.
# The tibiae that underwent a dewaxing process were dehydrated. After paraffin blocks were formed, the tissues were sectioned at 4-μm thickness. The sectioned tissues were rehydrated, and then stained using immunofluorescence. […]
# tibia = tibia and growth plate length in mice dosed during a period of active growth; type: in vivo, C57BL/6 mice
# Procedure: as §5, §6, §4
# To understand whether indirubin-3′-oxime can actually produce an increase in bone length in mice, indirubin-3′-oxime was administered during a period of active growth, and its effect was examined (FIG. 4A). First of all, the effect on the activity of the growth plate in the middle of a period of growth was examined using the hematoxylin-eosin staining procedure (FIG. 4B).
# [4] = growth plate at 9 weeks (FIG. 3C)
smiles,measurement,setting,value
O=C1Nc2ccccc2/C1=C1/Nc2ccccc2/C1=N\O [indirubin-3′-oxime],"length of resting zone, proliferating zone and hypertrophic chondrocyte zone (safranin staining)","ex vivo tibia; 6 days, ex vivo tibia (FIGS. 1C, 1D)","increase in the total length (the resting zone, the proliferating zone, and the hypertrophic chondrocyte zone) that depended on the concentration"
same,increase in the total length of the tibia,"ex vivo tibia; tibiae treated for 6 days, ex vivo culture (FIGS. 1A, 1B)",dose-dependently induces longitudinal bone growth; also recorded: increase in the total length depended on the concentration change
same,stability of β-catenin (Western blot),β-catenin [1],increased the stability of β-catenin
same,amount of inactive GSKβ (Western blot),GSKβ,increasing the amount of inactive GSK3; also recorded: increasing the amount of inactive GSKβ
same,amount of β-catenin translocated into the nucleus (ICC),β-catenin [2],increase in the amount of β-catenin that was translocated into the nucleus
same,amount of β-catenin in the hypertrophic chondrocyte zone (IHC),β-catenin [3],amount of β-catenin markedly increased in the hypertrophic chondrocyte zone
same,"amount of Ki67, cell proliferation marker (IHC)",growth plate; [4],increase in the amount of Ki67
same,stability of β-catenin in growth plate (IHC),growth plate; [4],increase in the stability of β-catenin
same,activity of the growth plate (hematoxylin-eosin staining),"growth plate; intraperitoneal, compared with control at 9 weeks (FIG. 3B)",inhibits growth plate senescence; also recorded: activity of the growth plate was still maintained
same,persistence of the bone length effect after growth has ceased,"tibia; 13-week-old mice (FIGS. 4D, 4E)",lasts even in 13-week-old mice; also recorded: found to last even in 13-week-old mice
same,cell proliferation marker PCNA,tibia; mice dosed during period of active growth (FIG. 4B),confirmed through PCNA
same,total bone length of the tibia,tibia; mice dosed during period of active growth (FIG. 4D),increase in the total bone length of the tibia
same,length of each zone and total length of the growth plate,"tibia; mice dosed during period of active growth, hematoxylin-eosin staining (FIGS. 4B, 4C)",increases not only the length of each zone but also the total length of the growth plate; also recorded: increase not only in the length of each zone but also in the total length of the growth plate
